{"source": "patent US10145848B2", "about": "“Small-molecule hydrophobic tagging of fusion proteins and induced degradation of same” (YALE UNIVERSITY, priority 2010, dated 2018)", "key": {"[1]": {"assay": "Maximum tolerated dose experiment / weight gain in nude mice", "assay_type": "in vivo", "excerpt": "Nude mice were daily IP injected with indicated concentrations of HyT13 and were monitored for weight gain during the 14-day experiment. Shown is the percent weight gained during the 14-day period for each treatment group ±SEM. Each treatment group consisted of 7 mice.\n(§1) To examine whether the HaloTag:HyT13 based system could be used in mouse models to relieve the H-RasG12V-driven tumor burden, we first evaluated the pharmacokinetics of HyT13. We performed a maximum tolerated dose experiment with HyT13 in nude mice at doses up to 100 mg/kg over a 14-day treatment regimen. […] Next, we sought to determine the serum bioavailability of HyT13 following injections. HyT13 was administered at 25 mg/kg by intraperitoneal (IP) injection into Swiss Webster mice and the serum was collected at 1 and 24 hours post-injection. At 1 hour post HyT13 administration the blood serum concentration was approximately 2 μM, and by 24 hours the HyT13 concentration had dropped to about 500 nM (FIG. 10). Based on our previous experiments in a cell culture setting, we speculated that these serum HyT13 concentrations would be sufficient to suppress H-RasG12V tumor formation in mice. To test this, we injected NIH-3T3 cells expressing HA-HaloTag-H-RasG12V into the flank of nude mice and on the same day started a daily treatment regimen of vehicle, 25 mg/kg HyT13 or 100 mg/kg HyT13. […]"}, "[2]": {"target": "T1, EGFP-HaloTag (Rhodococcus rhodochrous, UniProt P0A3G2, C176G/H272F/K175M/Y273L)", "T1 construct": "The HaloTag protein was obtained from pHT2 vector (Promega); expressed in transfected cells", "assay": "Flow cytometry of intracellular GFP fluorescence in HeLa cells expressing EGFP-HaloTag", "assay_type": "cell-based", "details": "1 μM, 24 hours", "protocol": "Stable HeLa cells were raised by cotransfection of pCS2/EGFP-HaloTag and p-Puro containing the puromycin resistance gene. A clonal population of cells expressing EGFP-HaloTag was isolated. These cells were treated with vehicle or 1 μM HyT13 for 24 hours, washed with PBS and trypsinized. The cells were resuspended in FBS-free DMEM and the intracellular GFP level was measured by FACSCalibur (BD Biosciences).\n(§2) As the luciferase assay relied on the loss-of-activity of the luciferase-HaloTag fusion protein, we wanted to determine whether the decrease in luciferase activity resulted from the degradation of the entire fusion protein or perhaps simply inhibition of luciferase activity. We generated a stable Flp-In 293 cell line with a single integration site containing HA-EGFP-HaloTag fusion protein, and employed this cell line to perform kinetic studies with HyT13. […] Consistent with our previous observations, treatment of these cells with 1 μM of HyT13 for 24 hours reduced the mean fluorescence intensity of cells almost 7-fold. Together, these findings provide the first experimental evidence that hydrophobic tagging represents a viable strategy for the control of protein levels."}, "[3]": {"tested_on": "NIH-3T3 cells expressing HA-HaloTag-H-RasG12V", "assay": "Tumor formation assay in nude mice", "assay_type": "in vivo", "details": "25 mg/kg or 100 mg/kg daily IP", "protocol": "One hundred thousand NIH-3T3 cells expressing HA-HaloTag-H-RasG12V were injected into the flank of anesthetized 6-week old female nu/nu nude mice (Charles River Laboratories). Two hours later, the mice were IP injected with either vehicle (10 μl, volume, with 5 μl, DMSO and 5 μl, of Cremophor EL), 25 mg/kg HyT13 or 100 mg/kg HyT13. The drug injections continued daily until the end of the experiment. Upon the appearance of tumors on day 7, the tumors were measured daily with calipers, and their volumes were calculated using the formula: a(b)^2/2, where a and b represent the longest and shortest diameters of the tumor, respectively.\nas §1, with “10).” for “10). Based on our previous experiments in a cell culture setting, we speculated that these serum HyT13 concentrations would be sufficient to suppress H-RasG12V tumor formation in mice. To test this, we injected NIH-3T3 cells expressing HA-HaloTag-H-RasG12V into the flank of nude mice and on the same day started a daily treatment regimen of vehicle, 25 mg/kg HyT13 or 100 mg/kg HyT13.”"}, "[4]": {"assay": "Serum HyT13 determination (bio-reporter assay)", "assay_type": "in vivo", "details": "mouse, intraperitoneal, 25 mg/kg IP, Swiss Webster mice, read-out: blood serum concentration", "protocol": "Webster Swiss mice received IP injections of 25 mg/kg of HyT13. The injection volume was 10 μL, consisting of 5 μL, of Cremophor EL excipient and 5 μL, of HyT13 in DMSO. Blood was collected from the carotid artery 1 and 24 hours after the injection. The blood was allowed to coagulate for 10 minutes, centrifuged at 10,000 g for 5 minutes and the serum was pipetted into a new tube. Ten microliters of the serum were used for a bio-reporter assay, consisting of the ability to degrade luciferase activity in HEK 293T luciferase-HaloTag cells. The serum concentration of HyT13 was based on a concentration curve of HyT13 performed alongside the bio-reporter assay. […] Each treatment group consisted of three mice. Shown is the mean serum HyT13 level±SEM.\nTo examine whether the HaloTag:HyT13 based system could be used in mouse models to relieve the H-RasG12V-driven tumor burden, we first evaluated the pharmacokinetics of HyT13. We performed a maximum tolerated dose experiment with HyT13 in nude mice at doses up to 100 mg/kg over a 14-day treatment regimen. […] Next, we sought to determine the serum bioavailability of HyT13 following injections. HyT13 was administered at 25 mg/kg by intraperitoneal (IP) injection into Swiss Webster mice and the serum was collected at 1 and 24 hours post-injection. […]"}, "[5]": {"target": "T2, HA-EGFP-HaloTag fusion protein (Rhodococcus rhodochrous, UniProt P0A3G2, C176G/H272F/K175M/Y273L)", "T2 construct": "The HaloTag protein was obtained from pHT2 vector (Promega); expressed in transfected cells", "assay": "Immunoblotting of HA-EGFP-HaloTag in Flp-In 293 cells", "assay_type": "cell-based", "protocol": "Flp-In 293 cells expressing HA-EGFP-HaloTag were treated with indicated concentrations of HyT13 for 24 hours. The lysates were probed with anti-HA and anti-β-actin antibodies, with β-actin serving as a loading control. Shown is quantification of three separate experiments, with error bars representing SEM.\nFlp-In 293 cells expressing HA-EGFP-HaloTag cells were treated for the indicated times with 1 μM HyT13 and the lysates were probed with anti-HA and anti-β-actin antibodies. The rightmost sample was treated with HyT13 for 24 hours, after which HyT13-free media was provided for 24 hours. Shown is quantification of three separate experiments, with error bars representing SEM.\nThe indicated cells were washed twice with cold PBS and the cells were lysed in lysis buffer (1×PBS, 1% NP-40, 1 mM EDTA, 40 mM HEPES) with protease inhibitors. The lysates were cleared by centrifugation at 10,000 g for 5 min. The total protein concentration was determined by Bradford assay and 50 μg of protein was loaded onto an 8% Bis-Tris gel. To solubilize polyubiquitinated and aggregated proteins upon proteasome inhibition^42 samples generated for FIG. 12d were lysed with a SDS lysis buffer (1×PBS, 1% NP-40, 1% SDS, 1% sodium deoxycholate, 1 mM EDTA, 40 mM HEPES) with protease inhibitors. The blots were processed by standard procedures with indicated antibodies, and the band intensities were quantified by ImageJ.\nas §2"}}, "note": "“Also recorded” adds a separate entry of the source.", "data": [{"smiles": "O=C(CC12CC3CC(CC(C3)C1)C2)NCCOCCOCCCCCCCl", "note": "[HyT13, 2-((3r,5r,7r)-Adamantan-1-yl)-N-(2-(2-((6-chlorohexyl)oxy)ethoxy)ethyl)acetamide]", "values": [{"measurement": "weight gain", "setting": "[1]; mice injected daily at 100 mg/kg for 14 days", "result": "gained weight normally"}, {"measurement": "toxicity / phenotype in mice", "setting": "[1]; nude mice, daily IP, doses up to 100 mg/kg, 14 days", "result": "No obvious phenotype was observed; also recorded: no observed toxicity"}, {"measurement": "reduction of mean fluorescence intensity", "setting": "[2]", "result": "~7", "unit": "fold"}, {"measurement": "tumor size relative to vehicle treated mice (times smaller)", "setting": "[3]", "result": 6, "unit": "times"}, {"measurement": "concentration at 1 h", "setting": "[4]; 1 hour post administration", "result": "~2000", "unit": "nM"}, {"measurement": "concentration at 24 h", "setting": "[4]; 24 hours", "result": "~500", "unit": "nM"}, {"measurement": "time to 50% degradation", "setting": "[5]; 1 μM HyT13", "result": "≤ 1.5", "unit": "h"}, {"measurement": "time to full degradation effect", "setting": "[5]; 1 μM HyT13", "result": "≤ 8", "unit": "h"}, {"measurement": "protein level after removal of compound", "setting": "[5]; 1 μM for 24 hours, then removed for 24 hours", "result": "recovered to half the starting levels"}, {"measurement": "concentration at which maximal degradation effect is achieved", "setting": "[5]; 24 hours, immunoblotting", "result": 100, "unit": "nM"}, {"measurement": "DC50", "setting": "[5]; read-out: IC50 of fusion protein degradation, 24 hours, Flp-In 293 cells", "result": 21, "unit": "nM"}]}]}
